# According to patent US5914242A, “Method for diminishing myocardial infarction using protein phosphatase inhibitors” (priority 1997, dated 1999):
# Columns and labels:
# acid phosphatase = test: Effect on acid phosphatase; format: biochemical
# [1] = test system: divalent cation-independent serine/threonine protein phosphatase activity; test: Divalent cation-independent phosphatase activity in dilute whole cell homogenate of rabbit ventricle; format: biochemical; settings: crude whole cell homogenate, [32P]-phosphohistone
# Protocol: FIG. 5: Effect of fostriecin on the divalent cation-independent phosphatase activity contained in a dilute, whole cell homogenate of rabbit ventricle. Dilute homogenates of rabbit ventricle biopsies were assayed in the presence of the indicated amount of fostriecin. […] Assays were conducted in a total volume of 80 μl, and the indicated amount of fostriecin was added to the assay 10 minutes prior to initiation of the reaction by the addition of substrate. Each point represents the mean ± SE (n>6).
# Determination of protein phosphatase activity: Protein phosphatase activity against phosphohistone was determined by the quantification of liberated [^32 P] from phosphohistone according to previously established methods (see Honkanen et al., J. Biol. Chem. 265:19401-04 (1990); Honkanen et al., Mol. Pharmacol. 40:577-83 (1991); and Critz and Honkanen, Neuroprotocols 6:78-83 (1995)). Assays (80 μl final volume) were conducted in 50 mM Tris-buffer (pH 7.4) containing 0.5 mM DTT, 4 mM EDTA, and phosphoprotein (2 μM PO4). […] [^32 P]Phosphate liberated by the enzyme was then extracted as a phosphomolybdate complex and measured according to the methods of Killilea et al., Arch. […] Aliquots of the upper phase (100 μl) were removed for counting, and radioactivity was quantified with a scintillation counter. […]
# isolated rabbit hearts = test: Controlled coronary occlusion in isolated perfused (Langendorff) rabbit hearts, infarct size as % of risk zone; settings: for infarct size, % of the risk zone: control 33%
# Protocol: New Zealand white rabbits were anesthetized with intravenous sodium pentobarbital (30 mg/kg). The trachea was intubated and mechanical ventilation was achieved. After a left thoracotomy, a snare was passed around the coronary artery and the hearts were excised quickly, mounted on a Langendorff apparatus and perfused at 75 mm Hg pressure with non-recirculating Krebs buffer containing 118.5 mM NaCl, 4.7 mM KCl, 1.2 mM MgSO4, 1.2 mM KH2 PO4, 24.8 mM NaHCO3, 2.5 mM CaCl2, and 10 mM glucose. The Krebs buffer was gassed with 95% O2 /5% CO2 resulting in a pH of 7.4-7.5. The temperature of the perfusate was maintained at 37° C.
# A fluid-filled latex balloon connected to a transducer with PE240 tubing was inserted into the left ventricle. The balloon volume was adjusted to set the left ventricular diastolic pressure equal to 5-10 mm Hg at the beginning of the experiment. Total coronary artery flow was measured by timed collection of perfusate dripping from the heart with a graduated cylinder.
# The coronary artery was occluded for 30 minutes and reperfused for 2 hours. Fostriecin was mixed with oxygenated perfusate in a separate reservoir to a concentration of 1 μM. Treatment was begun by opening the line from the drug-laden reservoir and closing the line from the reservoir containing pure buffer. After 2 hours of reperfusion, the coronary artery was re-occluded, and 1-10 μm zinc cadmium sulfide fluorescent particles (Duke Scientific, Palo Alto, Calif.) were infused into the perfusate to demarcate the risk zone. The heart was removed, weighed, frozen, and cut into 2 mm thick slices. The slices were thawed and stained by incubation for 20 minutes at 37° C. in 1% triphenyltetrazolium chloride (TTC) in pH 7.4 buffer. The areas of infarct (TTC negative) and risk zone (non-fluorescent under ultraviolet light) were determined by planimetry. Infarct and risk zone volumes were calculated by multiplying each area by the slice thickness and summing the products. Infarct size for each heart was expressed as a percentage of the risk zone infarcted. In an untreated rabbit heart approximately 33% of the ischemic tissue infarcts in this model.
# Employing the well-characterized rabbit model described herein in Example 1, a controlled coronary occlusion was employed to induce reproducibly myocardial infarctions in isolated hearts. Defining the risk zone as the tissue normally supplied with oxygenated blood by the coronary artery before it is occluded, a 30 minute coronary occlusion produces an infarction that averages 33% of the risk zone (see data for control rabbits; FIG. 1). When the isolated hearts were treated with 1 μM fostriecin administered 15 minutes prior to the onset of ischemia and present during the 30 minute ischemic period, a significant decrease in infarct size to 9% of the risk zone was obtained (FIG. 1). This level of protection is equivalent to that seen in ischemic preconditioning (see Cohen M. V., et al., Cardiol. Rev. 3(3):137-49 (1995)), and represents a substantial decrease in the amount of myocardial tissue damaged.
# Since the onset of a myocardial infarction usually cannot be predicted, a compound that provides protection when administered after the onset of ischemia is clinically far more useful than a compound that is effective only if administered before the coronary occlusion. […] The addition of 10 μM fostriecin 10 minutes after the onset of ischemia decreased infarction size to 19% of the risk zone. […]
# [2] = test system: alkaline protein phosphatase; test: Effect on alkaline protein phosphatase; format: biochemical
smiles,measurement,setting,value
CC(O)(/C=C/C1CC=CC(=O)O1)C(CC(O)\C=C/C=C\C=C\CO)OP(=O)(O)O (centres unmarked) [fostriecin],effect on acid phosphatase,acid phosphatase,no effect
same,inhibition of phosphatase activity in rabbit heart ventricle homogenate,[1],inhibits
same,"infarct size, % of the risk zone",isolated rabbit hearts; 1 μM fostriecin from 15 minutes prior to ischemia and during 30-minute coronary occlusion,9 % of the risk zone
same,"infarct size, % of the risk zone",isolated rabbit hearts; 10 μM fostriecin added 10 minutes after onset of 30-minute ischemia,19 % of the risk zone
same,inhibition at 10 µM,"isolated rabbit hearts; Oryctolagus cuniculus, 10 min, 10 μM fostriecin added 10 minutes after onset of ischemia, read-out: infarction smaller than in untreated hearts",43%
same,hemodynamic effects,isolated rabbit hearts; isolated rabbit heart perfused with 1 μM fostriecin,No hemodynamic effects were observed
same,concentration found to provide protection,isolated rabbit hearts; perfused rabbit hearts,1 to 10 µM
same,effect on alkaline protein phosphatase,[2],no effect
